Read-outs that look alike come from different tables or passages of the source. One block for each compound: values may come before it.
Experiments:
[1] = biological target: human c-MER catalytic domain (Homo sapiens (Human), UniProt Q12866); assay: LanthaScreen TR-FRET kinase assay, c-MER
[2] = tested on: CD8-MerTK in Ba/F3-CDM cells; assay: In cell MER kinase assay, Ba/F3-CDM cell proliferation without IL-3 (Celltiter-Glo); format: cell-based, murine; conditions: 48 hours compound treatment, read-out: Cell growth inhibition (GI50)
Procedure, shortened: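 Ba/F3 cells, IL-3-dependent, transfected with CD8-MerTK and grown without IL-3 in DMEM/10% FBS. IL-3-supplemented Ba/F3 cells run in parallel as a cytotoxicity control.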

[3] = read-out: Mer TK inhibition (IC50), Biochemical IC50, TR-FRET, 10 uM ATP

human c-MER catalytic domain, sequence (Q12866 587-858): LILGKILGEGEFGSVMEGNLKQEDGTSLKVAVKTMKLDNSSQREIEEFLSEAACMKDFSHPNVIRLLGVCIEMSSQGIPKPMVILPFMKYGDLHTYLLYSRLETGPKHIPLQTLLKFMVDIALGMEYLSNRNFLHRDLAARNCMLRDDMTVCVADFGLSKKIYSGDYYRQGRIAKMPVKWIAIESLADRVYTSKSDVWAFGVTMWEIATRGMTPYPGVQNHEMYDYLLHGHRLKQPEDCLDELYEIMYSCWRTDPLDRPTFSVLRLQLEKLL

Structure (SMILES): CCc1cc(CO[C@H]2CNC[C@@H]2NC(=O)c2cc(-c3ccncc3)cnc2N)ccc1C [Example 395, 6-amino-N-((3S,4S)-4-((3-ethyl-4-methylbenzyl)oxy)pyrrolidin-3-yl)-[3,4′-bipyridine]-5-carboxamide]
IC50 [1, 3]: < 10 nM | GI50 [2]: 500 to 1000 nM

Structure (SMILES): CCc1cc(CO[C@H]2CNC[C@@H]2NC(=O)c2cc(-c3cccnc3)cnc2N)ccc1C [Example 396, 6-amino-N-((3S,4S)-4-((3-ethyl-4-methylbenzyl)oxy)pyrrolidin-3-yl)-[3,3′-bipyridine]-5-carboxamide]
IC50 [1, 3]: < 10 nM | GI50 [2]: > 1000 nM

IC50 [1]: < 10 nM | GI50 [2]: 500 to 1000 nM
Structure (SMILES): CCc1cc(CO[C@H]2CNC[C@@H]2NC(=O)c2cc(-c3ccc(C=O)cc3)cnc2N)ccc1C [Example 399, 2-amino-N-((3S,4S)-4-((3-ethyl-4-methylbenzyl)oxy)pyrrolidin-3-yl)-5-(4-formylphenyl)nicotinamide]

Structure (SMILES): CCc1cc(CO[C@H]2CNC[C@@H]2NC(=O)c2cc(-c3ccc(C#N)cc3)cnc2N)ccc1C [Example 400, 2-amino-5-(4-cyanophenyl)-N-((3S,4S)-4-((3-ethyl-4-methylbenzyl)oxy)pyrrolidin-3-yl)nicotinamide]
IC50 [1, 3]: < 10 nM | GI50 [2]: 500 to 1000 nM

Structure (SMILES): CCc1cc(CO[C@H]2CNC[C@@H]2NC(=O)c2cc(-c3ccc(NS(C)(=O)=O)cc3)cnc2N)ccc1C [Example 401, 2-amino-N-((3S,4S)-4-((3-ethyl-4-methylbenzyl)oxy)pyrrolidin-3-yl)-5-(4-(methylsulfonamido)phenyl)nicotinamide]
IC50 [1, 3]: < 10 nM | GI50 [2]: > 1000 nM

Structure (SMILES): CCc1cc(CO[C@H]2CNC[C@@H]2NC(=O)c2cc(-c3ccc(N(C)C)cc3)cnc2N)ccc1C [Example 405, 2-amino-5-(4-(dimethylamino)phenyl)-N-((3S,4S)-4-((3-ethyl-4-methylbenzyl)oxy)pyrrolidin-3-yl)nicotinamide]
IC50 [1, 3]: < 10 nM | GI50 [2]: 100 to 500 nM

Structure (SMILES): CCc1cc(CO[C@H]2CNC[C@@H]2NC(=O)c2cc(-c3ccc(CC#N)cc3)cnc2N)ccc1C [Example 411, 2-amino-5-(4-(cyanomethyl)phenyl)-N-((3S,4S)-4-((3-ethyl-4-methylbenzyl)oxy)pyrrolidin-3-yl)nicotinamide]
IC50 [1, 3]: < 10 nM | GI50 [2]: 100 to 500 nM

Structure (SMILES): CCc1cc(CO[C@H]2CNC[C@@H]2NC(=O)c2cc(-c3cnn(C4CCNCC4)c3)cnc2N)ccc1C [Example 412, 2-amino-N-((3S,4S)-4-((3-ethyl-4-methylbenzyl)oxy)pyrrolidin-3-yl)-5-(1-(piperidin-4-yl)-1H-pyrazol-4-yl)nicotinamide]
IC50 [1, 3]: < 10 nM | GI50 [2]: > 1000 nM

Structure (SMILES): CCc1cc(CO[C@H]2CNC[C@@H]2NC(=O)c2cc(-c3cnn(C4CCN(C)CC4)c3)cnc2N)ccc1C [Example 413, 2-amino-N-((3S,4S)-4-((3-ethyl-4-methylbenzyl)oxy)pyrrolidin-3-yl)-5-(1-(1-methylpiperidin-4-yl)-1H-pyrazol-4-yl)nicotinamide]
IC50 [1, 3]: < 10 nM | GI50 [2]: 500 to 1000 nM

Structure (SMILES): Cc1ccc(CO[C@H]2CNC[C@@H]2NC(=O)c2cc(-c3cnn(C)c3)cnc2N)cc1 [Example 415, 2-amino-5-(1-methyl-1H-pyrazol-4-yl)-N-((3S,4S)-4-((4-methylbenzyl)oxy)pyrrolidin-3-yl)nicotinamide]
IC50 [1, 3]: < 10 nM | GI50 [2]: > 1000 nM

Structure (SMILES): CCc1cccc(CO[C@H]2CNC[C@@H]2NC(=O)c2cc(-c3cnn(C)c3)cnc2N)c1 [Example 416, 2-amino-N-((3S,4S)-4-((3-ethylbenzyl)oxy)pyrrolidin-3-yl)-5-(1-methyl-1H-pyrazol-4-yl)nicotinamide]
IC50 [1, 3]: < 10 nM | GI50 [2]: 100 to 500 nM

IC50 [1, 3]: < 10 nM | GI50 [2]: > 1000 nM
Structure (SMILES): CCc1cc(CO[C@H]2CNC[C@@H]2NC(=O)c2cc(-c3ccc(C(=O)NC4CCN(C)CC4)cc3)cnc2N)ccc1C [Example 419, 2-amino-N-((3S,4S)-4-((3-ethyl-4-methylbenzyl)oxy)pyrrolidin-3-yl)-5-(4-((1-methylpiperidin-4-yl)carbamoyl)phenyl)nicotinamide]

Structure (SMILES): CCc1cc(CO[C@H]2CN(C)C[C@@H]2NC(=O)c2cc(-c3cnn(C)c3)cnc2N)ccc1C [Example 426, 2-amino-N-((3S,4S)-4-((3-ethyl-4-methylbenzyl)oxy)-1-methylpyrrolidin-3-yl)-5-(1-methyl-1H-pyrazol-4-yl)nicotinamide]
IC50 [1, 3]: < 10 nM | GI50 [2]: 500 to 1000 nM

Structure (SMILES): CCc1cc(CO[C@H]2CN(C)C[C@@H]2NC(=O)c2cc(-c3cnn(C4CCN(C)CC4)c3)cnc2N)ccc1C [Example 433, 2-amino-N-((3S,4S)-4-((3-ethyl-4-methylbenzyl)oxy)-1-methylpyrrolidin-3-yl)-5-(1-(1-methylpiperidin-4-yl)-1H-pyrazol-4-yl)nicotinamide]
IC50 [1, 3]: < 10 nM | GI50 [2]: 100 to 500 nM

Structure (SMILES): CN1CCN(Cc2ccc(-c3ccc(CO[C@H]4CNC[C@@H]4NC(=O)c4cc(-c5cnn(C)c5)cnc4N)cc3)cc2)CC1 [Example 434, 2-amino-5-(1-methyl-1H-pyrazol-4-yl)-N-((3S,4S)-4-((4′-((4-methylpiperazin-1-yl)methyl)-[1,1′-biphenyl]-4-yl)methoxy)pyrrolidin-3-yl)-nicotinamide]
IC50 [1, 3]: < 10 nM | GI50 [2]: 500 to 1000 nM

Structure (SMILES): CN1CCN(Cc2ccc(-c3ccc(CO[C@H]4CN(C)C[C@@H]4NC(=O)c4cc(-c5cnn(C)c5)cnc4N)cc3)cc2)CC1 [Example 435, 2-amino-5-(1-methyl-1H-pyrazol-4-yl)-N-((3S,4S)-1-methyl-4-((4′-((4-methylpiperazin-1-yl)methyl)-[1,1′-biphenyl]-4-yl)methoxy)pyrrolidin-3-yl)-nicotinamide]
IC50 [1, 3]: < 10 nM | GI50 [2]: 100 to 500 nM

Structure (SMILES): CN1CCN(Cc2ccc(-c3ccc(CO[C@H]4CNC[C@@H]4NC(=O)c4cc(-c5cnn(C)c5)cnc4N)cc3)cc2C(F)(F)F)CC1 [Example 436, 2-amino-5-(1-methyl-1H-pyrazol-4-yl)-N-((3S,4S)-4-((4′-((4-methylpiperazin-1-yl)methyl)-3′-(trifluoromethyl)-[1,1′-biphenyl]-4-yl)methoxy)-pyrrolidin-3-yl)nicotinamide]
IC50 [1, 3]: < 10 nM | GI50 [2]: 500 to 1000 nM

Structure (SMILES): CN1CCN(Cc2ccc(-c3ccc(CO[C@H]4CN(C)C[C@@H]4NC(=O)c4cc(-c5cnn(C)c5)cnc4N)cc3)cc2C(F)(F)F)CC1 [Example 437, 2-amino-5-(1-methyl-1H-pyrazol-4-yl)-N-((3S,4S)-1-methyl-4-((4′-((4-methylpiperazin-1-yl)methyl)-3′-(trifluoromethyl)-[1,1′-biphenyl]-4-yl)-methoxy)pyrrolidin-3-yl)nicotinamide]
IC50 [1, 3]: < 10 nM | GI50 [2]: < 100 nM

Structure (SMILES): CC(c1ccc(-c2ccc(CO[C@H]3CNC[C@@H]3NC(=O)c3cc(-c4cnn(C)c4)cnc3N)cc2)cc1)N1CCN(C)CC1 (stereo partly drawn) [Example 438, 2-amino-5-(1-methyl-1H-pyrazol-4-yl)-N-((3S,4S)-4-((4′-(1-(4-methylpiperazin-1-yl)ethyl)-[1,1′-biphenyl]-4-yl)methoxy)pyrrolidin-3-yl)-nicotinamide]
IC50 [1, 3]: < 10 nM | GI50 [2]: 500 to 1000 nM

Structure (SMILES): CC(c1ccc(-c2ccc(CO[C@H]3CN(C)C[C@@H]3NC(=O)c3cc(-c4cnn(C)c4)cnc3N)cc2)cc1)N1CCN(C)CC1 (stereo partly drawn) [Example 439, 2-amino-5-(1-methyl-1H-pyrazol-4-yl)-N-((3S,4S)-1-methyl-4-((4′-(1-(4-methylpiperazin-1-yl)ethyl)-[1,1′-biphenyl]-4-yl)methoxy)pyrrolidin-3-yl)-nicotinamide]
IC50 [1, 3]: < 10 nM | GI50 [2]: 100 to 500 nM

Structure (SMILES): Cn1cc(-c2cnc(N)c(C(=O)N[C@H]3CNC[C@@H]3OCc3ccc(-c4ccc(C(C)(C)N5CCN(CCO)CC5)cc4)cc3)c2)cn1 [Example 440, 2-amino-N-((3S,4S)-4-((4′-(2-(4-(2-hydroxyethyl)piperazin-1-yl)propan-2-yl)-[1,1′-biphenyl]-4-yl)methoxy)pyrrolidin-3-yl)-5-(1-methyl-1H-pyrazol-4-yl)nicotinamide]
IC50 [1, 3]: < 10 nM | GI50 [2]: > 1000 nM

Structure (SMILES): CN1C[C@H](NC(=O)c2cc(-c3cnn(C)c3)cnc2N)[C@@H](OCc2ccc(-c3ccc(C(C)(C)N4CCN(CCO)CC4)cc3)cc2)C1 [Example 441]
IC50 [1, 3]: < 10 nM | GI50 [2]: 100 to 500 nM

Structure (SMILES): CC(c1ccc(-c2ccc(CO[C@H]3CNC[C@@H]3NC(=O)c3cc(-c4cnn(C)c4)cnc3N)cc2)cc1)N1CCN(CCO)CC1 (stereo partly drawn) [Example 442, 2-amino-N-((3S,4S)-4-((4′-(1-(4-(2-hydroxyethyl)piperazin-1-yl)ethyl)-[1,1′-biphenyl]-4-yl)methoxy)pyrrolidin-3-yl)-5-(1-methyl-1H-pyrazol-4-yl)nicotinamide]
IC50 [1, 3]: < 10 nM | GI50 [2]: > 1000 nM

Structure (SMILES): CC(c1ccc(-c2ccc(CO[C@H]3CN(C)C[C@@H]3NC(=O)c3cc(-c4cnn(C)c4)cnc3N)cc2)cc1)N1CCN(CCO)CC1 (stereo partly drawn) [Example 443, 2-amino-N-((3S,4S)-4-((4′-(1-(4-(2-hydroxyethyl)piperazin-1-yl)ethyl)-[1,1′-biphenyl]-4-yl)methoxy)-1-methylpyrrolidin-3-yl)-5-(1-methyl-1H-pyrazol-4-yl)nicotinamide]
IC50 [1, 3]: < 10 nM | GI50 [2]: < 100 nM

Structure (SMILES): Cn1cc(-c2cnc(N)c(C(=O)N[C@H]3CNC[C@@H]3OCc3ccc(-c4ccc(CN5CCN(CCO)CC5)c(C(F)(F)F)c4)cc3)c2)cn1 [Example 444, 2-amino-N-((3S,4S)-4-((4′-((4-(2-hydroxyethyl)piperazin-1-yl)-methyl)-3′-(trifluoromethyl)-[1,1′-biphenyl]-4-yl)methoxy)pyrrolidin-3-yl)-5-(1-methyl-1H-pyrazol-4-yl)nicotinamide]
IC50 [1, 3]: < 10 nM | GI50 [2]: > 1000 nM

Structure (SMILES): CN1C[C@H](NC(=O)c2cc(-c3cnn(C)c3)cnc2N)[C@@H](OCc2ccc(-c3ccc(CN4CCN(CCO)CC4)c(C(F)(F)F)c3)cc2)C1 [Example 445, 2-amino-N-((3S,4S)-4-((4′-((4-(2-hydroxyethyl)piperazin-1-yl)-methyl)-3′-(trifluoromethyl)-[1,1′-biphenyl]-4-yl)methoxy)-1-methylpyrrolidin-3-yl)-5-(1-methyl-1H-pyrazol-4-yl)nicotinamide]
IC50 [1, 3]: < 10 nM | GI50 [2]: < 100 nM

From patent US10125118B2, “Heteroaryl compounds and their use as therapeutic drugs” (Dong-A Socio Holdings Co., Ltd., priority 2015, dated 2018)
